Like-named read-outs stand apart in the source and are kept apart here.
Molecular target: recombinant eIF4E (Homo sapiens (Human), UniProt P06730)
Experiment: Fluorescence polarization competition assay for eIF4E binding potency
Procedure: Compounds were screened for eIF4E binding potency using a fluorescence polarization competition assay. All binding reactions were performed in fluorescence polarization buffer (FPB) containing 20 mM Tris pH 7.5, 100 mM NaCl, 1 mM DTT, and 0.02% Tween-20. Final binding reactions contained 75 nM recombinant eIF4E (Beryllium, custom order), 20 nM EDA-m^7GDP-ATTO-550 (Jena Bioscience, NU-827-550) and varying concentrations of the inhibitory compound of interest. Final DMSO concentration in each reaction was 1%.
eIF4E protein was pre-incubated with EDA-m^7GDP-ATTO-550 in FPB at 2× concentrations for 5 minutes prior to the addition of compounds. Compounds (100×) were prepared using 3-fold serial dilutions in 100% DMSO, and subsequently diluted 1:50 in FPB to produce 2× stocks. 50 μl of 2× eIF4E/EDA-m^7GDP-ATTO-550 were transferred to the wells of a 96-well half-area black flat bottom polystyrene plate. 50 μl of 2× test compound were added, and binding reactions were allowed to equilibrate for 30 minutes at room temperature while protected from light. The fluorescent polarization signal was detected using a Victor 2 multi-label counter (Perkin Elmer) and the concentration necessary to achieve inhibition of eIF4E/EDA-m^7GDP-ATTO-550 binding by 50% (IC50) was calculated using data from an 8-point compound dilution series.
In Table 4A, IC50 values of less than 0.05 μM are labelled as “+++”, from 1 to 0.05 μM are labelled as “++”, and greater than 1 μM are labelled as “+”. ND=not determined.

[1] = inhibition of eIF4E/EDA-m7GDP-ATTO-550 binding by 50%, Table 4B calculated values, read-out: IC50
[2] = fluorescence polarization competition, 75 nM recombinant eIF4E, 20 nM EDA-m7GDP-ATTO-550, IC50 class, read-out: elF4E FP

recombinant eIF4E, sequence (P06730 whole entry): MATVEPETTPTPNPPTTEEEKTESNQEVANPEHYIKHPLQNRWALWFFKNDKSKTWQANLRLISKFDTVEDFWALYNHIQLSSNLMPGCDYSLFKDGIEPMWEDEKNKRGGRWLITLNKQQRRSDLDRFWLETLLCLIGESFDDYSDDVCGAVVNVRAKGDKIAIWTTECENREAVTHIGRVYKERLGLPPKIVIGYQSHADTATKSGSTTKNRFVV

IC50 [1] [nM]	IC50 [2] [nM]	Structure (SMILES)
63.1		Cc1nc2cncc(C#N)c2c(=O)n1CCOc1ccc(Cl)cc1-c1cccc(P(=O)(O)O)c1 [150FA]
143		Cc1nc2cncc(C#N)c2c(=O)n1CCOc1ccc(Cl)cc1-c1cccc(P(=O)(O)OC(C)C)c1 [150FB]
124		Cc1nc2cnccc2c(=O)n1CCOc1ccc(Cl)cc1-c1cccc(P(=O)(O)O)c1 [150FC]
43.2		Cc1cc(-c2cc(Cl)ccc2OCCn2c(C)nc3cc(C(F)(F)F)c(-c4ccccc4C#N)nc3c2=O)c2scc(C(=O)O)c2n1 [345a]
25.3		Cc1cc(-c2cc(Cl)ccc2OCCn2c(C)nc3cc(C(F)(F)F)c(-c4ccccc4C(N)=O)nc3c2=O)c2scc(C(=O)O)c2n1 [345b]
885		Cc1cc(-c2cc(Cl)ccc2OCCn2c(C)nc3cc(C(F)(F)F)cc(O)c3c2=O)c2scc(C(=O)O)c2n1 [351a]
93.6		Cc1cc(-c2cc(Cl)ccc2OCCn2c(C)nc3cc(C(F)(F)F)ccc3c2=O)c2scc(C(=O)O)c2n1 [351b]
2.87		Cc1cc(-c2cc(Cl)ccc2OCCn2c(C)nc3cc(C(F)F)c(N(C)C)c(C#N)c3c2=O)c2scc(C(=O)O)c2n1 [439a]
32		Cc1cc(-c2cc(Cl)ccc2OCCn2c(C)nc3cc(C(F)F)c(O)c(C#N)c3c2=O)c2scc(C(=O)O)c2n1 [439b]
1940	> 1000	Cc1cc(-c2nc3c(=O)n(CCOc4ccc(Cl)cc4-c4ccc(C#N)c5c(C(=O)O)csc45)c(C)nc3cc2C(F)(F)F)ccn1 [788Fa]
4.35	< 50	Cc1cc(-c2nc3c(=O)n(CCOc4ccc(Cl)cc4-c4ccc(C(N)=O)c5c(C(=O)O)csc45)c(C)nc3cc2C(F)(F)F)ccn1 [788Fb]
38.3		Cc1cc(-c2cc(Cl)ccc2OCCn2c(C)nc3cc(Cl)c(N4C[C@@H](C)N(C)[C@@H](C)C4)c(C#N)c3c2=O)c2sc(C)c(C(=O)O)c2n1 [1090a]
503		Cc1cc(-c2cc(Cl)ccc2OCCn2c(C)nc3cc(N4C[C@@H](C)N(C)[C@@H](C)C4)c(F)c(C#N)c3c2=O)c2sc(C)c(C(=O)O)c2n1 [1090b]
19.2		Cc1nc2cnc(N(C)C3CCN([C@H]4C[C@@H](OC(F)(F)F)C4)CC3)c(C#N)c2c(=O)n1CC#Cc1ccc(Cl)cc1-c1ccnc2c(C(=O)O)csc12 [1173a]
13		COCCC(CCOC)N(C)c1ncc2nc(C)n(CC#Cc3ccc(Cl)cc3-c3ccnc4c(C(=O)O)csc34)c(=O)c2c1C#N [1173b]
22.9	< 50	Cc1nc2cc(C(F)(F)F)cc(C#N)c2c(=O)n1CCOc1ccc(Cl)cc1-c1ccnc2c(C(=O)O)csc12 [Compound 272]
50.9	50 to 1000	COc1cncc(-c2c(C(F)(F)F)cc3nc(C)n(CCOc4ccc(Cl)cc4-c4cc(C)nc5c(C(=O)O)csc45)c(=O)c3c2C#N)c1 [Compound 1060]
1.52	< 50	CCc1cc(-c2cc(Cl)ccc2OCCn2c(C)nc3c(C)nc(N)c(C#N)c3c2=O)c2scc(C(=O)O)c2n1 [Compound 1069]
281	50 to 1000	Cc1nc2cnccc2c(=O)n1CCOc1ccc(Cl)cc1-c1cccc(C(=O)O)c1 [compound 1]

IC50 [1] [nM]	IC50 [2] [nM]	Structure (SMILES)
4720	> 1000	O=C(O)c1cccc(-c2cc(Cl)ccc2OCCn2cnc3cc(F)ccc3c2=O)c1 [compound 3]
3520	> 1000	O=C(O)c1cccc(-c2cc(Cl)ccc2OCCn2cnc3cccc(F)c3c2=O)c1 [compound 4]
7640	> 1000	O=C(O)c1cccc(-c2cc(Cl)ccc2OCCn2ccc3cnccc3c2=O)c1 [compound 5]
7390	> 1000	O=C(O)c1cccc(-c2cc(Cl)ccc2OCCn2ccc3ccncc3c2=O)c1 [compound 6]
12000	> 1000	O=C(O)c1cccc(-c2cc(Cl)ccc2OCCn2ccc3cccnc3c2=O)c1 [compound 7]
> 30000	> 1000	O=C(O)c1cccc(-c2cc(Cl)ccc2OCCn2ccc3ccccc3c2=O)c1 [compound 9]
6510	> 1000	O=C(O)c1cccc(-c2cc(Cl)ccc2OCCn2ccc3ncccc3c2=O)c1 [compound 10]
6850	> 1000	O=C(O)c1cccc(-c2cc(Cl)ccc2OCCn2cnc3ccccc3c2=O)c1 [compound 11]
2390	> 1000	O=C(O)c1cccc(-c2cc(Cl)ccc2OCCn2cnc3ccncc3c2=O)c1 [compound 12]
1070	> 1000	O=C(O)c1cccc(-c2cc(Cl)ccc2OCCn2cnc3ccncc3c2=O)c1 [compound 13]
> 3000	> 1000	O=C(O)c1cccc(-c2cc(Cl)ccc2OCCn2ccc3ncncc3c2=O)c1 [compound 14]
1740	> 1000	O=C(O)c1cccc(-c2cc(Cl)ccc2OCCn2ccc3nnccc3c2=O)c1 [compound 15]
721	50 to 1000	O=C(O)c1cccc(-c2cc(Cl)ccc2OCCn2cnc3ncncc3c2=O)c1 [compound 17]
832	50 to 1000	O=C(O)c1cccc(-c2cc(Cl)ccc2OCCn2cnc3nnccc3c2=O)c1 [compound 18]
838	50 to 1000	O=C(O)c1cccc(-c2cc(Cl)ccc2OCCn2cnc3nccnc3c2=O)c1 [compound 19]
575	50 to 1000	O=C(O)c1cccc(-c2cc(Cl)ccc2OCCn2cnc3cccnc3c2=O)c1 [compound 21]
24.9	< 50	Cc1nc2c(F)cc(C(F)F)c(C#N)c2c(=O)n1CCOc1ccc(Cl)cc1-c1ccnc2c(C(=O)O)csc12 [compound 22]
184	50 to 1000	CC#Cc1c(C(=O)O)cccc1-c1cc(Cl)ccc1OCCn1cnc2cnc(C#N)cc2c1=O [compound 24]
12600	> 1000	N#Cc1cc2c(=O)n(Cc3cc4cc(Cl)cc(-c5cccc(C(=O)O)c5)c4o3)cnc2cn1 [compound 25]

IC50 [1] [nM]	IC50 [2] [nM]	Structure (SMILES)
919	50 to 1000	O=C(O)c1cccc(-c2cc(Cl)ccc2OCCn2cnc3cnc(Sc4ccccc4)cc3c2=O)c1 [compound 26]
149	50 to 1000	N#Cc1ccc2ncn(CCOc3ccc(Cl)cc3-c3cccc(C(=O)O)c3)c(=O)c2c1C#N [compound 27]
61.6	50 to 1000	N#Cc1c(C(F)F)ccc2ncn(CCOc3ccc(Cl)cc3-c3cccc(C(=O)O)c3)c(=O)c12 [compound 28]
211	50 to 1000	N#Cc1cc2c(=O)n(CCOc3ccc(Cl)cc3-c3ccnc(C(=O)O)c3)cnc2cn1 [compound 29]
164	50 to 1000	N#Cc1cc2c(=O)n(CCOc3ccc(Cl)cc3-c3ccnc4c(C(=O)O)csc34)cnc2cn1 [compound 30]
190	50 to 1000	CNS(=O)(=O)c1cc2c(=O)n(CCOc3ccc(Cl)cc3-c3cccc(C(=O)O)c3)cnc2cn1 [compound 32]
203	50 to 1000	Cc1nc2c(C(F)F)nc(C#N)cc2c(=O)n1CCOc1ccc(Cl)cc1-c1cccc(C(=O)O)c1 [compound 33]
88.5	50 to 1000	N#Cc1cncc2ncn(CCOc3ccc(Cl)cc3-c3cccc(C(=O)O)c3)c(=O)c12 [compound 34]
44.3	< 50	Cc1nc2cncc(C#N)c2c(=O)n1CCOc1ccc(Cl)cc1-c1ccnc(C(=O)O)c1 [compound 35]
39.6	< 50	Cc1nc2c(C(F)F)ccc(C#N)c2c(=O)n1CCOc1ccc(Cl)cc1-c1cccc(C(=O)O)c1 [compound 37]
55.5	50 to 1000	Cc1nc2c(C(F)(F)F)ncc(C#N)c2c(=O)n1CCOc1ccc(Cl)cc1-c1cccc(C(=O)O)c1 [compound 38]
116	50 to 1000	N#Cc1cncc2nc(C(F)F)n(CCOc3ccc(Cl)cc3-c3ccnc4c(C(=O)O)csc34)c(=O)c12 [compound 39]
3440	> 1000	N#Cc1cc2c(=O)n(C/C=C/c3ccc(Cl)cc3-c3cccc(C(=O)O)c3)cnc2cn1 [compound 41]
19800	> 1000	N#Cc1cc2c(=O)n(CCCc3ccc(Cl)cc3-c3cccc(C(=O)O)c3)cnc2cn1 [compound 42]
> 10000	> 1000	N#Cc1cc2c(=O)n(C[C@@H]3C[C@H]3c3ccc(Cl)cc3-c3cccc(C(=O)O)c3)cnc2cn1 [compound 43]
73.1	50 to 1000	Cc1nc2cncc(C#N)c2c(=O)n1C/C=C/c1ccc(Cl)cc1-c1cccc(C(=O)O)c1 [compound 44]
2890	> 1000	Cc1ccc(C(=O)O)c2nccc(-c3cc(Cl)ccc3OCCn3cnc4cncc(C#N)c4c3=O)c12 [compound 45]
67.2	50 to 1000	N#Cc1cc(C(F)(F)F)cc2c(Cl)c(Cl)n(CCOc3ccc(Cl)cc3-c3ccnc4c(C(=O)O)csc34)c(=O)c12 [compound 46]
631	50 to 1000	N#Cc1cncc2nc(CCC(=O)O)n(CCOc3ccc(Cl)cc3-c3ccccc3)c(=O)c12 [compound 48]
